Source: US20230321055A1, “PREVENTIVE TREATMENT OF MIGRAINE” (priority 2022, published 2023)

Legend:
[1] = oral administration; cited from earlier work
[2] = tested on: participants with CM and moderate to severe symptoms of depression; assay: Same phase 3 study: analysis of participants with chronic migraine and moderate to severe symptoms of depression (PHQ-9 ≥10); type: in vivo, human; set-up: MSQ v2.1 RFR, Change from baseline, mean / MSQ v2.1 RFP, Change from baseline, mean / MSQ v2.1 EF, Change from baseline, mean / MSQ v2.1 RFR, MMRM, LS mean change / MSQ v2.1 RFP, MMRM, LS mean change / MSQ v2.1 EF, MMRM, LS mean change / HIT-6, Change from baseline, mean / HIT-6, MMRM, LS mean change: scale not given here; settings: 60 mg QD
Source text: Depression is a common comorbidity in people with migraine and is a risk factor for transformation of EM to CM. Depressive symptoms predict increases in headache-related disability and poor health-related quality of life (HRQoL) in people with migraine. Thus, trial data analysis was used to evaluate the effect of atogepant in participants with CM and baseline symptoms of moderate to severe depression. Specifically, analysis of trial data evaluated the impact of atogepant on change in monthly migraine days, ≥50% and ≥75% responder rates, change in MSQ v2.1 domain scores, and PGIC in participants with CM and moderate to severe depression symptomology. PHQ-9 is a validated, screening and diagnostic tool designed to improve the recognition rate of depression and facilitates diagnosis and treatment. A cut-off score of ≥10 was used to identify participants with moderate or severe depressive symptoms, to determine eligibility and as a continuous outcome to measure changes in depression. As disclosed hereinabove, the MSQ v2.1 is a 14-item measure of health-related quality of life evaluating impacts attributed to migraine over the past 4 weeks and comprises three domains: Role Function-Restrictive (RFR), Role Function-Preventive (RFP), and Emotional Function (EF). PGIC is a single item used to measure the subject's impression of overall change in migraine since the first dose of study intervention. Findings for the atogepant 60 mg QD dose are presented herein. […] For the endpoint change from baseline in monthly migraine days and each MSQ v2.1 domain score, the comparison between treatment groups was analyzed using a restricted maximum likelihood-based mixed model for repeated measures (MMRM). Logistic regression models were used to analyze PGIC responder at week 12 and ≥50% or 75% responder rates across 12-week double-blind treatment period. ANCOVA model was used to analyze change from baseline in PHQ-9 score at week 12.
Analysis of trial data evaluated the impact of atogepant on headache day reduction, moderate/severe headache days, acute medication use day reduction, impacts of headache and migraine as evaluated by the HIT-6 and AIM-D, and symptoms of moderate to severe depression as measured by PHQ-9. A cut-off score of ≥10 was used to identify participants with moderate or severe depressive symptoms, to determine eligibility and as a continuous outcome to measure changes in depressive symptoms. Findings for the atogepant 60 mg QD dose are presented here. Similar results for the 30 BID dose (excluded for simplicity). For endpoints other than PHQ-9, the comparison between treatment groups were analyzed using a restricted maximum likelihood-based mixed model for repeated measures (MMRM). ANCOVA model was used to analyze PHQ-9 related endpoints.

[3] = across the 12-week treatment period, mITT, PHQ-9 ≥10 subgroup (n = 109)
[4] = mITT, PHQ-9 ≥10 subgroup (n = 109)
[5] = mITT, PHQ-9 ≥10 subgroup (n = 109), 12-week treatment period
[6] = week 12, mITT, PHQ-9 ≥10 subgroup (n = 109)

C[C@@H]1[C@H](c2c(F)ccc(F)c2F)C[C@H](NC(=O)c2cnc3c(c2)C[C@@]2(C3)C(=O)Nc3ncccc32)C(=O)N1CC(F)(F)F [Atogepant, (S)—N—((3S,5S,6R)-6-methyl-2-oxo-1-(2,2,2-trifluoroethyl)-5-(2,3,6-trifluorophenyl)piperidin-3-yl)-2′-oxo-1′,2′,5,7-tetrahydrospiro[cyclopenta[b]pyridine-6,3′-pyrrolo[2,3-b]pyridine]-3-carboxamide]
half-life [1]: approximately 11 hours
time to maximum plasma concentrations [1]: ≤ 2 h
AIM-D PDA, Change from baseline, mean [2, 3]: −16.09
AIM-D PDA, LSMD vs placebo [2, 3]: −5.91
AIM-D PDA, MMRM, LS mean change [2, 3]: −13.50
AIM-D PI, Change from baseline, mean [2, 3]: −13.84
AIM-D PI, LSMD vs placebo [2, 3]: −4.63
AIM-D PI, MMRM, LS mean change [2, 3]: −11.68
AIM-D PDA, Months 1-3, mean [2, 4]: 22.29
AIM-D PI, Months 1-3, mean [2, 4]: 20.07
Monthly Acute Medication Use Days, Post-baseline (Month 1-3), mean [2, 4]: 9.51
Monthly Headache Days, Post-baseline (Month 1-3), mean [2, 4]: 15.24
Monthly Migraine Days, Post-baseline (Month 1-3), mean [2, 4]: 12.90
Monthly Moderate/Severe Headache Days, Post-baseline (Month 1-3), mean [2, 4]: 10.22
PHQ-9, Week 12, mean [2, 4]: 8.81
≥50% Responders, Odds ratio vs placebo [2, 4]: 3.70
≥75% Responders, Odds ratio vs placebo [2, 4]: 13.64
Monthly Acute Medication Use Days, Change from baseline, mean [2, 5]: −7.52
Monthly Acute Medication Use Days, LSMD vs placebo [2, 5]: −3.53
Monthly Acute Medication Use Days, MMRM, LS mean change [2, 5]: −6.57
Monthly Headache Days, Change from baseline, mean [2, 5]: −6.94
Monthly Headache Days, LSMD vs placebo [2, 5]: −2.86
Monthly Headache Days, MMRM, LS mean change [2, 5]: −6.52
Monthly Migraine Days, Change from baseline, mean [2, 5]: −7.23
Monthly Migraine Days, LSMD vs placebo [2, 5]: −3.04
Monthly Migraine Days, MMRM, LS mean change [2, 5]: −6.71
Monthly Moderate/Severe Headache Days, Change from baseline, mean [2, 5]: −7.34
Monthly Moderate/Severe Headache Days, LSMD vs placebo [2, 5]: −2.68
Monthly Moderate/Severe Headache Days, MMRM, LS mean change [2, 5]: −6.77
≥50% Responders, Odds ratio vs placebo ([2]; mITT, PHQ-9 ≥10 subgroup (n = 109), listed as atogepant): 3.7
PGIC much better or very much better, OR vs placebo ([2]; week 12, PHQ-9 ≥10 subgroup): 2.52
HIT-6, Change from baseline, mean [2, 6]: −8.73
HIT-6, LSMD vs placebo [2, 6]: −3.18
HIT-6, MMRM, LS mean change [2, 6]: −8.37
HIT-6, Post-baseline, mean [2, 6]: 57.68
MSQ v2.1 EF, Change from baseline, mean [2, 6]: 30.17
MSQ v2.1 EF, LSMD vs placebo [2, 6]: 9.24
MSQ v2.1 EF, MMRM, LS mean change [2, 6]: 28.19
MSQ v2.1 EF, Post-baseline, mean [2, 6]: 70.79
MSQ v2.1 RFP, Change from baseline, mean [2, 6]: 24.95
MSQ v2.1 RFP, LSMD vs placebo [2, 6]: 8.89
MSQ v2.1 RFP, MMRM, LS mean change [2, 6]: 22.91
MSQ v2.1 RFP, Post-baseline, mean [2, 6]: 73.71
MSQ v2.1 RFR, Change from baseline, mean [2, 6]: 28.04
MSQ v2.1 RFR, LSMD vs placebo [2, 6]: 8.77
MSQ v2.1 RFR, MMRM, LS mean change [2, 6]: 25.56
MSQ v2.1 RFR, Post-baseline, mean [2, 6]: 61.53
PHQ-9, ANCOVA, LS mean change [2, 6]: −5.11
PHQ-9, Change from baseline, mean [2, 6]: −5.61
PHQ-9, LSMD vs placebo [2, 6]: −1.38
